Measured values from ChEMBL document CHEMBL5550197, “New melphalan derivatives for the treatment of retinoblastoma in combination with thermotherapy” (RSC Med Chem, 2024).

Columns and labels:
Y79 [1] = test: Cytotoxicity against human Y79 cells assessed as cell viability incubated for 24 hrs under 37 degreeC by PrestoBlue reagent based assay; format: functional; settings: Y79, 24 h
RPMI-8226 = test: Cytotoxicity against human RPMI-8226 cells incubated for 48 hrs by resazurin dye based assay; format: functional, cell-based; settings: RPMI-8226, 48 h
dsDNA [2] = test: Binding affinity to dsDNA (unknown origin) assessed as adduct formation by measuring free dsDNA incubated for 48 hrs by ESI-MS analysis; format: nucleic-acid assay; parameters: concentration or dose not given beside the values
dsDNA [3] = test: Binding affinity to dsDNA (unknown origin) assessed as adduct formation by measuring bound dsDNA incubated for 48 hrs by ESI-MS analysis; format: nucleic-acid assay
Y79 [4] = test: Potency index, ratio of melphalan IC50 to test compound IC50 for cytotoxicity against human Y79 cells assessed as cell viability incubated for 24 hrs under 37 degreeC by PrestoBlue reagent based assay; format: functional
Y79 [5] = test: Potency index, ratio of melphalan IC50 to test compound IC50 for cytotoxicity against human Y79 cells assessed as cell viability preincubated for 1 hr under 42 degreeC and further incubated under 37 degreeC for 23 hrs by PrestoBlue reagent based assay; format: functional; settings: time 24 hrs

Row | Compound | Activity (dsDNA [2]) [%] | Activity (dsDNA [3]) [%] | other results
1 | N[C@@H](Cc1ccc(N(CCCl)CCCl)cc1)C(=O)OCCC(F)(F)C(F)(F)C(F)(F)C(F)(F)C(F)(F)C(F)(F)C(F)(F)C(F)(F)C(F)(F)C(F)(F)F |  |  | IC50 (Y79 [1]): > 200 µM
2 | N[C@@H](Cc1ccc(N(CCCl)CCCl)cc1)C(=O)O | 99 |  | IC50 (RPMI-8226): 8.9 µM
3 | N[C@@H](Cc1ccc(N(CCCl)CCCl)cc1)C(=O)OCCC(F)(F)C(F)(F)C(F)(F)C(F)(F)C(F)(F)C(F)(F)C(F)(F)C(F)(F)F | 98 |  | 
4 | N[C@@H](Cc1ccc(N(CCCl)CCCl)cc1)C(=O)OCCC(F)(F)C(F)(F)F | 37 | 63 | 
5 | Cl.N[C@@H](Cc1ccc(N(CCCl)CCCl)cc1)C(=O)OCCC(F)(F)F | 26 | 74 | Ratio IC50 (Y79 [4]): 8; Ratio IC50 (Y79 [5]): 8
6 | N[C@@H](Cc1ccc(N(CCCl)CCCl)cc1)C(=O)OCCC(F)(F)C(F)(F)C(F)(F)C(F)(F)F | 51 | 49 | 
7 | N[C@@H](Cc1ccc(N(CCCl)CCCl)cc1)C(=O)OCCC(F)(F)C(F)(F)C(F)(F)C(F)(F)C(F)(F)C(F)(F)F | 92 |  | 
